In patent US7041785B1, “B1-bradykinin receptor antagonists and use thereof” (Université de Sherbrooke, priority 1996, dated 2006):

Assays:
[1] = system: streptozotocin-induced diabetic mice; details: mouse, in vivo
Description: Male C57BL/Ks mdb mice were injected with streptozotocin (40 mg/kg) for 5 consecutive days. […] Treatment with antagonists was started 3 days after STZ and lasted for 10 days. Plasma glucose was determined by the glucose oxidase method, and 13 days urinary samples were assayed for proteins, nitrites and kallikreins.
Male C57BL/Ksmdb mice, 3 month old were provided by National Institute of Genetic, Buenos Aires. The animals were housed at a constant room temperature, with a 12 h light-dark cycle.
Blood (50–60 ul) was collected from the tail vein of non fasting animals in heparinized capillary tubes. Blood samples were taken one day before starting the STZ injection and at the day 13, just before sacrifice. Blood samples were centrifuged and the plasma immediately diluted into the appropriate buffer. Plasma glucose was determined by a glucose oxidase method (the kit was obtained from Wiener, Argentina). […] Urinary volume was determined gravimetrically and urinary samples were assayed for proteins^45, nitrites^40 and kallikrein^47.
Streptozotocin was purchased from the Sigma Chem Co., St. Louis, Mo. […] The paranitroanilide (pNA) released by enzymatic action on the substrate was measured calorimetrically to determine kallikrein activity
All data were expressed as mean=S.E. Analysis of Variance (ANOVA) was performed to evaluate differences among the groups. p<0.05 was considered as significant.

[2] = target: T1, angiotensin-converting enzyme (ACE) from rabbit lungs (Oryctolagus cuniculus, UniProt P12822); details: cited from earlier work
T1 sequence (P12822 34-1310): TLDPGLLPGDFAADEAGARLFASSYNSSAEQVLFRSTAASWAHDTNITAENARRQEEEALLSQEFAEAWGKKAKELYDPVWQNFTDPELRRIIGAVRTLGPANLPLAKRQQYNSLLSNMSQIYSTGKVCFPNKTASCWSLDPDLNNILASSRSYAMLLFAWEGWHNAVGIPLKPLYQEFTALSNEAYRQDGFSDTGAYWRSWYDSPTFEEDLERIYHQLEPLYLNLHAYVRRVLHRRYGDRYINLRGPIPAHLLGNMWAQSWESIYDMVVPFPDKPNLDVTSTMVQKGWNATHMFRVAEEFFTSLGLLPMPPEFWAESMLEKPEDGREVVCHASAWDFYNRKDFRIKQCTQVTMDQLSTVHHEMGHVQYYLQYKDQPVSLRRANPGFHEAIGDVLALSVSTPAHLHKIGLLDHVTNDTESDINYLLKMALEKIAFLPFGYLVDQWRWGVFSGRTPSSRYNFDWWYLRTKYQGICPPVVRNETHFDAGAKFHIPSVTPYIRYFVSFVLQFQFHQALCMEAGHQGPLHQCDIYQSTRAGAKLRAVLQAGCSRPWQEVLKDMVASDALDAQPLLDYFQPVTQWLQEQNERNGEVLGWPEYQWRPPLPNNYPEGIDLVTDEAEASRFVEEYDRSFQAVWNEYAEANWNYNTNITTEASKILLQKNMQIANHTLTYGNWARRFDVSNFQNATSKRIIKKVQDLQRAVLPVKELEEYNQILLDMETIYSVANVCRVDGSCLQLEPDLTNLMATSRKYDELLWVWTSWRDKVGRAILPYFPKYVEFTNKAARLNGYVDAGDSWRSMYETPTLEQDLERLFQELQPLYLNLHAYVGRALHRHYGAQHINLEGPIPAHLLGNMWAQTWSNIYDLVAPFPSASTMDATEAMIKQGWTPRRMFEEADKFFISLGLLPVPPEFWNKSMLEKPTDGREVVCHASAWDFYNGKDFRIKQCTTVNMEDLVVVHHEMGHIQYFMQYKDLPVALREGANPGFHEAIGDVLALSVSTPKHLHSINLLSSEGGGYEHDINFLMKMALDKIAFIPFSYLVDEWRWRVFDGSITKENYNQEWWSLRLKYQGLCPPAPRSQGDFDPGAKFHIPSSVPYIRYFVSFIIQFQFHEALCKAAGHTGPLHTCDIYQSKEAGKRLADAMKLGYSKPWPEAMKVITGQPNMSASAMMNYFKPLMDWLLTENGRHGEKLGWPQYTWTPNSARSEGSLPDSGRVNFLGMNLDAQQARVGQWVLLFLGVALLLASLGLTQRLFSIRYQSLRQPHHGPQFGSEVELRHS

BK-B1 receptor = target: T2, BK-B1 receptor (Rattus norvegicus, UniProt P97583); assay: Isometric contraction of portal vein segments from STZ-induced diabetic rats; type: cell-based; details: P<0.001
T2 construct: Segments of the portal vein (a known preparation for BK studies) from these rats were mounted in organ baths; from tissue; host or cells: rat portal vein segments (STZ-diabetic and normal rats)
T2 sequence (P97583 1-337): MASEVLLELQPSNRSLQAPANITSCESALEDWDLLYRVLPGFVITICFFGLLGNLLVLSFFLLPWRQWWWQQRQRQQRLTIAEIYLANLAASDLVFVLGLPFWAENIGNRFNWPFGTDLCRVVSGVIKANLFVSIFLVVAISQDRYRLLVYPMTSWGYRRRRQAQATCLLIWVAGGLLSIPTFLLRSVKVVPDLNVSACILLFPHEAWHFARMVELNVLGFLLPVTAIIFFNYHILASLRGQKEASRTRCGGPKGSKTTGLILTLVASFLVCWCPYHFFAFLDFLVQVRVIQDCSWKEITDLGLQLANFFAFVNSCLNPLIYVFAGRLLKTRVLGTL
Text: Capillary permeability is known to be selectively augmented in the streptozotocin (STZ) diabetic rat model^49. The vascular BK receptors in the STZ-induced diabetic rat was examined. Segments of the portal vein (a known preparation for BK studies) from these rats were mounted in organ baths for isometric contraction studies. The response to desArg^9BK, a specific BK–B1 receptor agonist, was enhanced by 118% in the diabetic tissue, compared to normal portal veins (0.48 vs 0.22g: P<0.001). […] HOE140, the BK–B2 receptor antagonist, had no effect on the diabetic portal vein abnormality. Evans blue (EB: 20 mg/kg), a marker of albumin extravasation, was injected to unanesthetized diabetic rats. […] Therefore, it was concluded that post-capillary hypercontractility to BK (via its B1 receptor) forces EB extravasation, and likely contributed to the diabetic vasculopathy.

Compound | Body weight [1] | Metabolism of naturally-occurring kinins by ACE [2] | Enhancement of response in diabetic tissue compared to normal portal veins (BK-B1 receptor) [%]
NC(N)=NCCC[C@@H](N)C(=O)N[C@@H](CCCN=C(N)N)C(=O)N1CCC[C@H]1C(=O)N1C[C@H](O)C[C@H]1C(=O)NCC(=O)N[C@@H](Cc1cccs1)C(=O)N[C@@H](CO)C(=O)N1Cc2ccccc2C[C@@H]1C(=O)N1[C@H](C(=O)N[C@@H](CCCN=C(N)N)C(=O)O)C[C@@H]2CCCC[C@@H]21 [HOE140, D-Arg(Hyp^3, Thi^5, D-Tic^7, Oic^8)BK] | No changes of body weight | – | –
N=C(N)NCCC[C@H](N)C(=O)N1CCC[C@H]1C(=O)N1CCC[C@H]1C(=O)NCC(=O)N[C@@H](Cc1ccccc1)C(=O)N[C@@H](CO)C(=O)N1CCC[C@H]1C(=O)N[C@@H](Cc1ccccc1)C(=O)O [desArg^9BK, Arg-Pro-Pro-G1y-Phe-Ser-Pro-Phe] | – | fully metabolised | 118
